# Assay results as given in the supplement of paper PMC10307832.
# Assays:
# Assay in all cases: relative viability (nuclei count vs DMSO), 5 days (fraction); higher = more cells survive
# [1] = compound: CS(=O)(=O)c1ccc(C(=O)Nc2ccc(Cl)c(-c3ccccn3)c2)c(Cl)c1 [Vismodegib] + CC(C)C[C@H](NC(=O)[C@H](Cc1ccccc1)NC(=O)c1cnccn1)B(O)O [Bortezomib] (partner 0.002 µM)
# Method in brief: (§1)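 Lung cancer cell lines were pin-tool dosed in 1536-well plates on the day after seeding, with either a lone drug or a fixed anchor-drug dose plus five library-drug doses (not always all listed) in √10 steps. Nuclei were counted on 4× images after 5 days. Relative viability is the ratio of treated-well to vehicle-well nuclei counts, with each value a median of duplicate plates.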
# [2] = compound: N#CC[C@H](C1CCCC1)n1cc(-c2ncnc3[nH]ccc23)cn1 [Ruxolitinib] + C[C@@H](Oc1cc(-c2cnn(C3CCNCC3)c2)cnc1N)c1c(Cl)ccc(F)c1Cl [Crizotinib] (partner 1 µM)
# Method in brief: as §1
# [3] = compound: N#CC[C@H](C1CCCC1)n1cc(-c2ncnc3[nH]ccc23)cn1 [Ruxolitinib] + Cc1cc(Nc2cc(N3CCN(C)CC3)nc(Sc3ccc(NC(=O)C4CC4)cc3)n2)n[nH]1 [Tozasertib] (partner 0.1 µM)
# Method in brief: as §1
# [4] = compound: N#CC[C@H](C1CCCC1)n1cc(-c2ncnc3[nH]ccc23)cn1 [Ruxolitinib] + O=C(c1cc(Cc2n[nH]c(=O)c3ccccc23)ccc1F)N1CCN(C(=O)C2CC2)CC1 [Olaparib] (partner 8 µM)
# Method in brief: as §1
cell line,measurement,setting,value
UMC-11,relative viability,[1]; first compound 0.08 µM,0.593
same,relative viability,[1]; first compound 0.253 µM,0.665
same,relative viability,[1]; first compound 0.8 µM,0.85
same,relative viability,[1]; first compound 2.53 µM,0.717
same,relative viability,[1]; first compound 8 µM,0.745
same,relative viability,[2]; first compound 0.08 µM,0.622
same,relative viability,[2]; first compound 0.253 µM,0.616
same,relative viability,[2]; first compound 0.8 µM,0.736
same,relative viability,[2]; first compound 2.53 µM,0.736
same,relative viability,[2]; first compound 8 µM,0.668
same,relative viability,[3]; first compound 0.08 µM,0.206
same,relative viability,[3]; first compound 0.253 µM,0.206
same,relative viability,[3]; first compound 0.8 µM,0.203
same,relative viability,[3]; first compound 2.53 µM,0.214
same,relative viability,[3]; first compound 8 µM,0.2
same,relative viability,[4]; first compound 0.08 µM,0.37
same,relative viability,[4]; first compound 0.253 µM,0.894
same,relative viability,[4]; first compound 0.8 µM,1.03
same,relative viability,[4]; first compound 2.53 µM,0.366
same,relative viability,[4]; first compound 8 µM,0.315
